In publication PMC9188596, “Structural basis of resistance to herbicides that target acetohydroxyacid synthase” (Nature Communications, 2022):
Several values for one entry are separate records, joined by “and”; a condition that tells them apart may be missing. Equal values may be shown once.

Key:
AtAHAS P197L mutant [1] = molecular target: T1, AtAHAS P197L mutant (Arabidopsis thaliana, UniProt P17597, P197L); test: biochemical
Procedure: (§1) Standard assays were performed using a continuous spectrophotometric method measuring the disappearance of pyruvate. The standard buffer contained 50 mM potassium phosphate, pH 7.2, 1 mM ThDP, 10 mM MgCl2, and 10 µM FAD. The concentration of pyruvate was in the range 100–160 mM, as described in the text, methods, or figure legends.
(§2) Supplementary Figure 6. Measurement of the Ki values for WT AtAHAS and the mutants.
(§3) The error bars represent the standard error of the mean of two independent replicates. [I] =
(§4) inhibitor concentration. Source data are provided with this paper.
(§5) (1 picture or pasted object on this page, not shown here)

AtAHAS W574L mutant [2] = molecular target: T2, AtAHAS W574L mutant (Arabidopsis thaliana, UniProt P17597, W574L); test: biochemical
Procedure: as §1, §2, §3, §4, §5

AtAHAS P197T mutant [3] = molecular target: T3, AtAHAS P197T mutant (Arabidopsis thaliana, UniProt P17597, P197T); test: biochemical
Procedure: as §1, §2, §3, §4, §5

AtAHAS S653T mutant [4] = molecular target: T4, AtAHAS S653T mutant (Arabidopsis thaliana, UniProt P17597, S653T); test: biochemical; details: Ki, S653T mutant; ± standard error of the mean
Procedure: as §1, §2, §3, §4, §5

AtAHAS P197L mutant [5] = molecular target: T1, AtAHAS P197L mutant; format: biochemical; details: NAI = no accumulative inhibition detected
Procedure: as §1
(§6) AtAHAS was assayed in the standard assay buffer containing 160 mM pyruvate, at 30 °C. For AtAHAS activation the progress curve corresponding to the lag-phase was fitted to Eq. (8) of Lonhienne et al.[14]. For the time dependent accumulative inhibition of AtAHAS the progress curves were fitted to Equation 9 of Lonhienne et al.[12].
(§7) Supplementary Figure 8. Measurement of the rate constants of accumulative inhibition for WT AtAHAS and its mutants. The progress curves were fitted to the equation of accumulative inhibition (Equation 7 2). The rate constants of enzyme inactivation ( kiapp) and enzyme recovery (k3) were measured in triplicate. Source data are provided with this paper. […]

AtAHAS W574L mutant [6] = molecular target: T2, AtAHAS W574L mutant; format: biochemical; details: NAI = no accumulative inhibition detected
Procedure: as §1, §6, §7

AtAHAS P197T mutant [7] = molecular target: T3, AtAHAS P197T mutant; format: biochemical; details: P197T, NAI = no accumulative inhibition detected
Procedure: as §1, §6, §7

AtAHAS S653T mutant [8] = molecular target: T4, AtAHAS S653T mutant; format: biochemical
Procedure: as §1, §6, §7

WT AtAHAS [9] = molecular target: T5, WT AtAHAS (Arabidopsis thaliana, UniProt P17597); test: Ki of herbicides, continuous spectrophotometric AHAS assay; format: biochemical; details: Ki, WT AtAHAS; ± standard error of the mean
Procedure: as §1, §2, §3, §4, §5

WT AtAHAS [10] = molecular target: T5, WT AtAHAS; format: biochemical
Procedure: as §1, §6
Supplementary Figure 8. Measurement of the rate constants of accumulative inhibition for WT AtAHAS and its mutants. The progress curves were fitted to the equation of accumulative inhibition (Equation 7 2). The rate constants of enzyme inactivation ( kiapp) and enzyme recovery (k3) were measured in triplicate. Source data are provided with this paper.

WT AtAHAS [11] = molecular target: T5, WT AtAHAS; test: Inhibition of AHAS activity by ubiquinone Q0; format: biochemical; details: read-out: % inhibition of AHAS activity by 0.5 mM Q0
Procedure: (§8) Next, we investigated how the mutants responded to regulation by redox signaling molecules using ubiquinone Q0 (Q0) as an example[14].
(§9) Supplementary Figure 5. Inhibition of WT AtAHAS and the mutants by Q0. AtAHAS was incubated with 100 mM pyruvate at 30°C. After reaching full activation, the inhibition reaction was initiated by addition of 0.5 mM Q0 to the sample cell. After seven minutes incubation with Q0, 1 mM DTT was added to reduce the remaining Q0, triggering re-activation of the enzyme.
(§10) Source data are provided with this paper.
as §5

AtAHAS P197L mutant [12] = molecular target: T1, AtAHAS P197L mutant; test: Inhibition of AHAS activity by ubiquinone Q0; format: biochemical; details: read-out: % inhibition of AHAS activity by 0.5 mM Q0
Procedure: as §8, §9, §10, §5

AtAHAS W574L mutant [13] = molecular target: T2, AtAHAS W574L mutant; test: Inhibition of AHAS activity by ubiquinone Q0; format: biochemical; details: read-out: % inhibition of AHAS activity by 0.5 mM Q0
Procedure: as §8, §9, §10, §5

AtAHAS P197T mutant [14] = molecular target: T3, AtAHAS P197T mutant; test: Inhibition of AHAS activity by ubiquinone Q0; format: biochemical; details: read-out: % inhibition of AHAS activity by 0.5 mM Q0
Procedure: as §8, §9, §10, §5

AtAHAS S653T mutant [15] = molecular target: T4, AtAHAS S653T mutant; test: Inhibition of AHAS activity by ubiquinone Q0; format: biochemical; details: read-out: % inhibition of AHAS activity by 0.5 mM Q0
Procedure: as §8, §9, §10, §5

[16] = S653T, individual replicate of triplicate
[17] = individual replicate of triplicate

COc1cc(OC)nc(NC(=O)NS(=O)(=O)N(C)S(C)(=O)=O)n1 [AS, amidosulfuron]
Ki (AtAHAS P197L mutant [1]; Ki (Supplementary Figure 6), P197L, fit of % activity remaining vs [I], two independent replicates): 93.5 ± 17.1 µM
Ki (AtAHAS P197L mutant [1]; Ki, P197L mutant, ± standard error of the mean): 93.5 ± 17.1 µM
Ki (AtAHAS W574L mutant [2]; Ki (Supplementary Figure 6), W574L, fit of % activity remaining vs [I], two independent replicates): 871 ± 66.5 µM
Ki (AtAHAS W574L mutant [2]; Ki, W574L mutant, ± standard error of the mean): 870 ± 60 µM
Ki (AtAHAS P197T mutant [3]; Ki (Supplementary Figure 6), P197T, fit of % activity remaining vs [I], two independent replicates): 61.4 ± 8.92 µM
Ki (AtAHAS P197T mutant [3]; Ki, P197T mutant, ± standard error of the mean): 61.4 ± 8.9 µM
Ki (AtAHAS S653T mutant [4]): 0.492 ± 0.025 µM
k3 (rate of recovery) (AtAHAS P197L mutant [5]; 160 mM pyruvate, 30 °C): NAI
kiapp (apparent rate of enzyme inactivation) (AtAHAS P197L mutant [5]; 160 mM pyruvate, 30 °C): NAI
kiapp/k3 (efficiency of accumulative inhibition) (AtAHAS P197L mutant [5]): NAI
k3 (rate of recovery) (AtAHAS W574L mutant [6]; 160 mM pyruvate, 30 °C): NAI
kiapp (apparent rate of enzyme inactivation) (AtAHAS W574L mutant [6]; 160 mM pyruvate, 30 °C): NAI
kiapp/k3 (efficiency of accumulative inhibition) (AtAHAS W574L mutant [6]): NAI
k3 (rate of recovery) (AtAHAS P197T mutant [7]; 160 mM pyruvate, 30 °C): NAI
kiapp (apparent rate of enzyme inactivation) (AtAHAS P197T mutant [7]; 160 mM pyruvate, 30 °C): NAI
kiapp/k3 (efficiency of accumulative inhibition) (AtAHAS P197T mutant [7]): NAI
kiapp/k3 (efficiency of accumulative inhibition) (AtAHAS S653T mutant [8]; S653T): 95
efficiency of accumulative inhibition (kiapp/k3) compared to WT (in words) (AtAHAS S653T mutant [8]; S653T vs WT): increased
k3 (rate of recovery) (AtAHAS S653T mutant [8]; S653T, 160 mM pyruvate, 30 °C, ± SEM): 0.02 ± 0.002 min⁻¹
k3, single progress curve (Supplementary Figure 8) (AtAHAS S653T mutant [8]; [16]): 0.02 min⁻¹ and 0.023 min⁻¹ and 0.021 min⁻¹
kiapp, single progress curve (Supplementary Figure 8) (AtAHAS S653T mutant [8]; [16]): 1.93 min⁻¹ and 1.94 min⁻¹ and 2.21 min⁻¹
Ki (WT AtAHAS [9]): 4.2 ± 0.6 µM
kiapp/k3 (efficiency of accumulative inhibition) (WT AtAHAS [10]): 20
k3 (rate of recovery) (WT AtAHAS [10]; 160 mM pyruvate, 30 °C, ± SEM): 0.02 ± 0.001 min⁻¹
kiapp (apparent rate of enzyme inactivation) (WT AtAHAS [10]; 160 mM pyruvate, 30 °C, ± SEM): 0.39 ± 0.06 min⁻¹
k3, single progress curve (Supplementary Figure 8) (WT AtAHAS [10]; [17]): 0.021 min-1 and 0.02 min-1 (2×)
kiapp, single progress curve (Supplementary Figure 8) (WT AtAHAS [10]; [17]): 0.34 min⁻¹ and 0.46 min⁻¹ and 0.36 min⁻¹

COC1=C(OC)C(=O)C(C)=CC1=O [Q0, ubiquinone Q0]
inhibition at 500 µM (WT AtAHAS [11]): 82%
inhibition at 500 µM (AtAHAS P197L mutant [12]): 89%
inhibition at 500 µM (AtAHAS W574L mutant [13]): 97%
inhibition at 500 µM (AtAHAS P197T mutant [14]): 91%
inhibition at 500 µM (AtAHAS S653T mutant [15]): 85%
